# Test results from US8530648B2, “Diaza-spiro[5.5]undecanes” (Novartis AG, priority 2009, dated 2013).
# Assays:
# [1] = biological target: hOx1R (Homo sapiens (Human), UniProt O43613); assay: Calcium accumulation in cells (FLIPR), hOx1R; format: cell-based; conditions: for inhibition at 10 µM: measured at a concentration of 10 μM of compound; for Ki: inhibition of orexin A induced calcium accumulation, Cheng and Prusoff correction
# Procedure: (§1) Calcium Accumulation in Cells (FLIPR):
# (§2) Cells expressing human orexin 1 or human orexin 2 receptors, were seeded at 8,000 cells/well in 384 well black-walled clear bottom, poly-D-lysine coated plates. After 24 h, the medium was removed and cells were washed once with phosphate buffered saline and serum-deprived overnight in assay buffer (130 mM NaCl, 5.4 mM KCl, 1.8 mM CaCl2, 0.8 mM MgSO4, 0.9 mM NaH2PO4, 25 mM glucose, 20 mM HEPES, pH 7.4) containing bovine serum albumin (1% w/v).
# (§3) On the day of the experiment, the cells seeded in black plates were treated with assay buffer containing the Ca^2+ sensitive fluorescent dye Fluo-4-AM (2 μM), and probenecid (0.1 mM). After 1 h plates were washed twice with, and resuspended in, assay buffer containing probenecid (0.1 mM) using a multi plate washer. […] Fluorescence measurements were then continued every 1 S for 120 S followed by every 4 S for 240 S.
# (§4) The measurements were typically made in two sequences:
# (§5) Compounds of formula I were tested usually in a concentration range from 10^−9 M to 10^−5 M.
# (§6) In the second round, performed one hour later (to allow for equilibration), Orexin A was tested either in the absence (calibration curves, Orexin A agonist controls) or in the presence of compounds of formula I to determine antagonism.
# [2] = biological target: hOx2R (Homo sapiens (Human), UniProt O43614); assay: Calcium accumulation in cells (FLIPR), hOx2R; format: cell-based; conditions: for Ki: inhibition of orexin A induced calcium accumulation, Cheng and Prusoff correction; for inhibition at 10 µM: measured at a concentration of 10 μM of compound
# hOx2R, sequence (O43614 whole entry): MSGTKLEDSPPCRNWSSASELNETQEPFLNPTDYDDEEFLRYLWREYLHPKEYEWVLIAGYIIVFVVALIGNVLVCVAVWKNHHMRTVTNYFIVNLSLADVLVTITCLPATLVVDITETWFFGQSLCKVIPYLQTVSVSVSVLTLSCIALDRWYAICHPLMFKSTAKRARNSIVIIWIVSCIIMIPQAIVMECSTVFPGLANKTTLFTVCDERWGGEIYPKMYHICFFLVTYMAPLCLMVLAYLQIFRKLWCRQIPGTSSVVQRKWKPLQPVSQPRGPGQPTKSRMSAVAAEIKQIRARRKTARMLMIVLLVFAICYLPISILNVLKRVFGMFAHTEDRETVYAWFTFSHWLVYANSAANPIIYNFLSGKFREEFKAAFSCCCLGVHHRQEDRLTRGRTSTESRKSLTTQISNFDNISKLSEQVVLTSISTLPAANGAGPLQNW
# Procedure: as §1, §2, §3, §4, §5, §6
# hOx1R, sequence (O43613 whole entry): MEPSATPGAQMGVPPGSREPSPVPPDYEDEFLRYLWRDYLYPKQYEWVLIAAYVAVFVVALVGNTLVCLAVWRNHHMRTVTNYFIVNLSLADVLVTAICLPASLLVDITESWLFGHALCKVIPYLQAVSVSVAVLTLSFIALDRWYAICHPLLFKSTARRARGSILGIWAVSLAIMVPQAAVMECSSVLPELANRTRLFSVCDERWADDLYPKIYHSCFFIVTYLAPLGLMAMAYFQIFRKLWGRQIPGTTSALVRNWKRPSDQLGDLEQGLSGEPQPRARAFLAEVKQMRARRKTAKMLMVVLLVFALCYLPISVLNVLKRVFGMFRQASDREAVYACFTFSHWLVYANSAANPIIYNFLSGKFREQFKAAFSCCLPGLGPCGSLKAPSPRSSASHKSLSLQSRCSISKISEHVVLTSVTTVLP
Compound,inhibition at 10 µM [1],Ki [2],Ki [1],inhibition at 10 µM [2]
"O=C1N(Cc2cccnc2)CCCC12CCN(c1cnc3ccccc3n1)CC2 [Example 64, 2-(pyridin-3-ylmethyl)-9-(quinoxalin-2-yl)-2,9-diazaspiro[5.5]undecan-1-one]",32%,718 nM,,
"O=C1N(Cn2nnc3ccccc32)CCCC12CCN(c1cnc3ccccc3n1)CC2 [Example 66, 2-((1H-benzo[d][1,2,3]triazol-1-yl)methyl)-9-(quinoxalin-2-yl)-2,9-diazaspiro[5.5]undecan-1-one]",,302 nM,1710 nM,
"O=C1N(Cc2ccncc2)CCCC12CCN(c1cnc3ccccc3n1)CC2 [Example 67, 2-(pyridin-4-ylmethyl)-9-(quinoxalin-2-yl)-2,9-diazaspiro[5.5]undecan-1-one]",11%,,,27%
"Cc1cc(CN2CCCC3(CCN(c4cnc5ccccc5n4)CC3)C2=O)ccn1 [Example 68, 2-((2-methylpyridin-4-yl)methyl)-9-(quinoxalin-2-yl)-2,9-diazaspiro[5.5]undecan-1-one]",29%,830 nM,,
"Cc1cccc(-c2sc(C)nc2CN2CCCC3(CCN(c4cnc5ccccc5n4)CC3)C2=O)c1 [Example 69, 2-((2-methyl-5-m-tolylthiazol-4-yl)methyl)-9-(quinoxalin-2-yl)-2,9-diazaspiro[5.5]undecan-1-one]",,163 nM,1110 nM,
"O=C1N(Cc2cnc3ccccn23)CCCC12CCN(c1cnc3ccccc3n1)CC2 [Example 70, 2-(imidazo[1,2-a]pyridin-3-ylmethyl)-9-(quinoxalin-2-yl)-2,9-diazaspiro[5.5]undecan-1-one]",,258 nM,3420 nM,
"Cc1nc2ccccn2c1CN1CCCC2(CCN(c3cnc4ccccc4n3)CC2)C1=O [Example 71, 2-((2-methylimidazo[1,2-a]pyridin-3-yl)methyl)-9-(quinoxalin-2-yl)-2,9-diazaspiro[5.5]undecan-1-one]",,466 nM,2160 nM,
"O=C1N(Cc2ccnc(Br)c2)CCCC12CCN(c1cnc3ccccc3n1)CC2 [Example 72, 2-((2-bromopyridin-4-yl)methyl)-9-(quinoxalin-2-yl)-2,9-diazaspiro[5.5]undecan-1-one]",,452 nM,3100 nM,
"CC(c1c[nH]c2ccccc12)N1CCCC2(CCN(c3cnc4ccccc4n3)CC2)C1=O (stereo not shown) [Example 74, 2-(1-(1H-indol-3-yl)ethyl)-9-(quinoxalin-2-yl)-2,9-diazaspiro[5.5]undecan-1-one]",,185 nM,675 nM,
"O=C1N(Cc2nnc3ccccn23)CCCC12CCN(c1cnc3ccccc3n1)CC2 [Example 75, 2-([1,2,4]triazolo[4,3-a]pyridin-3-ylmethyl)-9-(quinoxalin-2-yl)-2,9-diazaspiro[5.5]undecan-1-one]",22%,,,35%
"Cn1nc2ccccc2c1CN1CCCC2(CCN(c3cnc4ccccc4n3)CC2)C1=O [Example 76, 2-((2-methyl-2H-indazol-3-yl)methyl)-9-(quinoxalin-2-yl)-2,9-diazaspiro[5.5]undecan-1-one]",44%,559 nM,,
"O=C1N(Cc2ccc(Cl)nc2)CCCC12CCN(c1cnc3ccccc3n1)CC2 [Example 78, 2-((6-chloropyridin-3-yl)methyl)-9-(quinoxalin-2-yl)-2,9-diazaspiro[5.5]undecan-1-one]",15%,,,32%
"O=C1N(Cc2cnn3ccccc23)CCCC12CCN(c1cnc3ccccc3n1)CC2 [Example 79, 2-(pyrazolo[1,5-a]pyridin-3-ylmethyl)-9-(quinoxalin-2-yl)-2,9-diazaspiro[5.5]undecan-1-one]",,232 nM,2150 nM,
"COCc1cccc(CN2CCCC3(CCN(c4cnc5ccccc5n4)CC3)C2=O)c1 [Example 80, 2-(3-(methoxymethyl)benzyl)-9-(quinoxalin-2-yl)-2,9-diazaspiro[5.5]undecan-1-one]",,96 nM,2990 nM,
